Test results as given in PMC7112772 (Journal of Virological Methods, 2005).
Like-named read-outs stand apart in the source and are kept apart here.

Legend:
SARS-CoV [1] = test: microbe, parasite or virus in culture; settings: Severe acute respiratory syndrome coronavirus, 120 h, read-out: SARS-CoV EC50
TGEV = test: microbe, parasite or virus in culture; assay type: cell-based, strain purdue112 (porcine coronavirus); settings: read-out: TGEV EC50
in vitro [2] = settings: pig
in vitro [3] = settings: African monkey
SARS-CoV [4] = settings: for EC50: read-out: SARS-CoV EC50

| Compound | CC50 (VeroE6-EGFP cells) | CC50 (LLC-PK1-EGFP cells) | EC50 (SARS-CoV [1]) | EC50 (TGEV; Alphacoronavirus 1, 120 h) | CC50 (in vitro [2]) | CC50 (in vitro [3]) | EC50 (TGEV) | EC50 (SARS-CoV [4]) | SI SARS CC50/EC50 (SARS-CoV [4]) |
| --- | --- | --- | --- | --- | --- | --- | --- | --- | --- |
| Lopinavir/ritonavir | > 100 µM | > 100 µM |  |  |  |  |  |  |  |
| CC1(C)[C@@H](O[C@H]2O[C@H](C(=O)O)[C@@H](O)[C@H](O)[C@H]2O[C@@H]2O[C@H](C(=O)O)[C@@H](O)[C@H](O)[C@H]2O)CC[C@]2(C)[C@H]3C(=O)C=C4[C@@H]5C[C@@](C)(C(=O)O)CC[C@]5(C)CC[C@@]4(C)[C@]3(C)CC[C@@H]12 [Glycirrhizin] |  |  | > 100 µM | > 100 µM | > 100 µM | > 100 µM |  |  |  |
| Cc1cn([C@H]2C[C@H](N=[N+]=[N-])[C@@H](CO)O2)c(=O)[nH]c1=O [AZT] | > 100 µM | > 100 µM |  |  |  |  | > 100 µM | > 100 µM |  |
| dextran sulfate 5000 [DS5000] | > 100 µM | > 100 µM |  |  |  |  | > 100 µM | > 100 µM |  |
| S-Nitroso-N-acetylpenicillamine | 530 µM | 312 µM |  |  |  |  | > 312 µM | > 530 µM | <1.00 |
| O=C(O)C1=CC(=C(c2ccc(O)c(C(=O)O)c2)c2ccc(O)c(C(=O)O)c2)C=CC1=O [ATA, aurintricarboxylic acid] |  |  | > 9.19 µM | > 56.9 µM | 56.9 µM | 9.19 µM |  |  | <1.00 |
| NC(=O)c1ncn([C@@H]2O[C@H](CO)[C@@H](O)[C@H]2O)n1 [Ribavirin] |  |  | > 100 µM | > 20.2 µM | 20.2 µM | > 100 µM |  |  |  |
